Assay results reported in a melting point compilation (Tetko et al.; mined from patent text by program, amines drawn as free bases though some values may be those of a salt).

Row | Structure (SMILES) | melting point [°C]
1 | CCCc1nc2ccccc2n1Cc1ccc(-c2ccccc2-c2nnn[nH]2)nc1 | 240 to 241
2 | O=C1CCC(c2ccc(N=C(CCc3ccccc3)c3ccc(O)cc3O)cc2)=NN1 | 208 to 210
3 | O=C(Cc1cncs1)c1ccc(Cl)cc1Cl | 75 to 77
4 | CC(C)OC(=O)c1cc(I)c(F)cc1Cl | 38 to 43
5 | NC(=O)[C@H]1CCCCCC[C@H](CS)C(=O)N1 (relative stereo) | 185 to 192
6 | O=CNN(Cc1ccccc1[N+](=O)[O-])c1ccccc1 | 140 to 142
7 | S=C(NCCCCN(Cc1ccc(Cl)c(Cl)c1)c1ccc(Br)cn1)NCCCn1ccnc1 | 139 to 141
8 | O=C(O)CCc1oc(/C=C/c2ccccc2)nc1-c1ccccc1 | 138 to 139
9 | OC(Cn1cncn1)(CC(Cl)(Cl)Cl)c1ccc(F)cc1 (configuration not stated) | 127
10 | c1cnn2cnnc2c1 | 140 to 141
11 | CN1CCC(=C2c3c(ccn3C)CCn3cnnc32)CC1 | 214
12 | CC(C)(C)OC(=O)N[C@@H]1CN[C@H]2CCO[C@H]21 (relative stereo) | 110 to 111
13 | O=c1[nH]c(NCCSCc2nccs2)nnc1Cc1cccnc1 | 158 to 159
14 | CNc1nc(N)nc(-c2ccc(-c3ccccc3)cc2)n1 | 237 to 238
15 | CN1CCN(c2cccc3c2CC(=O)CC3)CC1 | > 85
16 | CC1(CCCOc2ccc([N+](=O)[O-])c(C=C3NC(=O)NC3=O)c2)OCCO1 | 175 to 180
17 | Cc1cccc2c1nc(COc1ccc(Cl)cc1)n2CCC(C)CN(C)C (racemic) | 80 to 82
18 | O=CC(=Cc1ccccc1OCc1ccc(Br)cc1)C(C=O)=Cc1ccccc1OCc1ccc(Br)cc1 | 210 to 211
19 | CCOC(=O)NNC(=S)NC | 117

Row | Structure (SMILES) | melting point [°C]
20 | CC(C)(C)NC(=O)/C=C/c1ccc(C(=O)c2c(-c3ccc(O)cc3)sc3cc(O)ccc23)cc1 | 187 to 190
21 | Cc1cc(C)cc(C#N)c1 | 51 to 52
22 | CNC(=O)Nc1snc(SC)c1C#N | 286
23 | OCCCNCc1cc(C(F)(F)F)cc(C(F)(F)F)c1 | 57 to 58
24 | N#C/C(=C\c1ccc(O)c(O)c1)C(=O)NCCCCNC(=O)/C(C#N)=C/c1ccc(O)c(O)c1 | 283
25 | COc1ccc(CNc2cc(C(c3cc(F)ccc3F)S(=O)(=O)c3ccc(F)cc3)c(Cl)cn2)cc1OC (configuration not stated) | 158 to 159
26 | O=C(O)c1cccc(P(c2ccccc2)c2ccccc2)n1 | 122
27 | Cc1noc(NS(=O)(=O)c2ccc(Cl)c(Cl)c2Cl)c1Br | 110 to 113
28 | N#Cc1cc2c(cc1O)OCC21C(=O)N(Cc2ccccc2C(F)(F)F)c2ccccc21 (configuration not stated) | 122 to 124
29 | C=NC(c1cccc(Nc2n[nH]c3ncnc(Nc4cccc(Cl)c4)c23)c1)N(C)C (configuration not stated) | 175 to 177
30 | CN1C(=S)NC(=O)C1=Cc1cc(C(C)(C)C)c(O)c(C(C)(C)C)c1 | 242 to 244
31 | Cn1c([N+](=O)[O-])cnc1CSc1ccccn1 | 108
32 | COc1cc(-c2cc(-c3ccccc3)c(N3CCOCC3)s2)nc(OC)c1OC | 124
33 | Cc1noc(C)c1S(=O)(=O)Nc1cc(-c2ncc(C(F)(F)F)cc2Cl)ccc1Cl | 161 to 162
34 | COc1cccc(Cc2oc3ccc(OC)cc3c2CC#N)c1 | 81
35 | O=C1N(Cc2ccc(NC=NO)nc2)c2ccccc2C12COc1cc3c(cc12)OCCO3 (configuration not stated) | 231 to 232
36 | C#Cc1ccnc(-c2cc(N)c(Br)cc2[N+](=O)[O-])c1 | 226 to 228
37 | CC(=O)OC1CSC(Oc2cncc(-c3c(C)noc3C)c2)C(OC(C)=O)C1OC(C)=O (configuration not stated) | 129 to 131
38 | C1CN(c2nc(NC3CC3)nc(C3CC3)n2)CCS1 | 133 to 134

Row | Structure (SMILES) | melting point [°C]
39 | COc1ccc(C(C)(C)CCC(=O)O)cc1NC(=O)C[C@H]1O[C@H](c2cccc(OC)c2OC)c2cc(Cl)ccc2N(CC(C)(C)CO)C1=O | 173 to 174
40 | COc1cc2c(cc1OC)CN(C)C2 | 80
41 | CC(=O)SC(CC(=O)N[C@@H](Cc1ccccc1)C(=O)O)C(=O)c1ccccc1 (some centres not stated) | 110 to 112
42 | Cc1n[nH]c(C)c1[C@H](C)NC(=O)COc1cc(C(F)(F)F)c2c(-c3ccccc3)nn(C)c2n1 | 145 to 147
43 | COC1CCC2C3CCC4CC(OC(=O)C(C)C)CCC4(C)C3CCC12C (configuration not stated) | 82 to 87
44 | CCOC(=O)C=C(C)C=CC=C(C)C=Cc1c(Cl)cc(OC)cc1Cl | 117 to 118
45 | Fc1ccc(CNc2nc(OCC(F)(F)F)nc(Oc3cccc(C(F)(F)F)c3)n2)cc1 | 107 to 109
46 | O=C(COc1ccccc1)N[C@@H](Cc1ccc(OCCc2coc(-c3ccccc3)n2)cc1)C(=O)O | 94 to 97
47 | Cc1[nH]c2ccc(F)cc2c1C(=O)Nc1ccc(Oc2ccccc2)c(C#N)c1 | 237
48 | CC(C)C[C@H](NC(=O)[C@H](Cc1c[nH]c2ccccc12)NC(=O)OC(C)(C)C)C(=O)CCl | 140 to 141
49 | Cn1cnnc1C(N)(c1ccc(Cl)cc1)c1ccc2c(c1)c(-c1cccc(Cl)c1)cc(=O)n2C (configuration not stated) | 210
50 | CCCCCC(C)N(Cc1ccc(OCCC(C)C)cc1)C(Nc1ccc(OC)cc1OC)=C1C(=O)COC1=O (configuration not stated) | 125 to 127
51 | COc1ccc2c(C(=O)O)cn(C(C)C)c2c1 | 162 to 163
52 | O=C(Nc1nnc(Cc2ccc(Cl)cc2)s1)c1ccc2cccnc2c1O | 276 to 278
53 | COc1ccc(C(=O)Nc2ccccc2)cc1NC(=S)Nc1cc(C(F)(F)F)cc(C(F)(F)F)c1 | 192 to 193
54 | OC1C(COC2CC2)OC(n2cnc3c(NC4CCCC4)nc(Cl)nc32)C1O (configuration not stated) | 104 to 106
55 | CCCCNC(=O)[C@H](C)C[C@H](O)[C@H](CC1CCCCC1)NC(=O)[C@H](Cc1cscn1)NC(=O)[C@@H](CC(=O)N(C)Cc1ccccc1)Cc1ccc(OC)cc1 | 112 to 114
56 | CC1=Cc2c(cccc2-c2cccc3ccccc23)C1 | 143

Now from value to molecule:

Row | melting point [°C] | Structure (SMILES)
57 | 137 to 140 | COc1ccc(NC(=O)c2ccc(N)cc2NC(=O)c2ccc(C(C)(C)C)cc2)cc1
58 | 217 to 218 | COC(=O)c1ccc(C(=O)Nc2cc3c4c(c2)CCCC4(C)CCC3)cc1
59 | 131 to 132 | Nc1cc(=O)n(CCCO)c2nc(NC3CCCCC3)ncc12
60 | 129 to 131 | C=CCOc1cc(NC(=O)C2=C(C(=O)N(C)C)CCCC2)ccc1Cl
61 | 212 to 214 | COc1cc(C(=O)N2Cc3ccccc3Cc3ccccc32)ccc1NC(=O)c1ccc(Cl)cc1Cl
62 | 272 | Cc1ccc(C)c(S(=O)(=O)n2ccc3c4c(N)nc(N)nc4ccc32)c1
63 | 201 to 204 | O=C(CC(F)(F)F)Nc1c(C(=O)c2ccccc2)[nH]c2cc(Cl)ccc12
64 | 152 to 154 | CC(C)(O)COc1c(-c2ccc(S(C)(=O)=O)cc2)cnn(-c2ccc(F)cc2)c1=O
65 | 64 to 65 | CC(=O)N1CCC(COCc2cc(C(F)(F)F)cc(C(F)(F)F)c2)(c2ccccc2)CC1
66 | 143 to 148 | COC(=O)c1ccccc1C1=NC(C)(C(C)C)C(=O)N1Sc1ccccc1[N+](=O)[O-] (configuration not stated)
67 | 149 to 151 | CC(=O)c1ccc2c(c1)CCCN2C(=O)c1ccc(-c2ccc(Cl)cc2)cc1
68 | 73 | CCOC(=O)Cc1ccc(NCc2cc(Br)ccc2OCc2ccccc2)cc1
69 | 130 to 132 | CC(=O)Oc1ccc(N2CCC(=O)c3ccccc32)cc1
70 | 170 to 172 | COc1ccccc1-c1ncsc1C(=O)O
71 | 41 to 42 | CCOc1cc(C=C(Br)Br)ccc1OC
72 | 180 | O=C(Nc1ccc(N2CCN(Cc3ccccc3)CC2)cc1)c1ccccc1-c1ccc(C(F)(F)F)cc1
73 | 76.5 to 78 | C#CC(=O)NC[C@@H]1CN2C(=O)C[C@H]2O1 (racemic)
74 | 95 | COC[C@H](C)Oc1cc(O)cc(C(=O)O)c1
75 | 118 to 120 | COC(=O)c1ccc(Cc2cn(C(C)C)c3ccc(C=CCC(=O)N(C)C)cc23)c(OC)c1
76 | 158 to 160 | CC1=C(C(=O)OC(C)C)C(c2cccc(Cl)c2Cl)N(C(=O)OC(C)C)C(=O)N1 (configuration not stated)
77 | 131 | CNC(=O)c1ccc(F)c2c1CC(N(CCc1c[nH]c3ccc(F)cc13)C1CCC1)CO2 (configuration not stated)

Row | melting point [°C] | Structure (SMILES)
78 | 220 to 223 | O=S(=O)(Nc1cccc2c(O)cccc12)N1CCOCC1
79 | 94 to 95 | CCOC(=O)c1ccc(N2CCCC2=O)cc1
80 | 128 | CCCCOCCOc1ccc(-c2ccc(N3CCCC3)c(C(C)=CC(=O)O)c2)cc1
81 | 112 to 113 | COc1cccc2c(C(F)(F)F)cc(C)nc12
82 | 173 to 175 | O=C(NCc1ccc(F)cc1)c1ccnc(N2CCN(Cc3ccc(F)cc3)C2=O)c1
83 | 140 to 141 | CCN(CC)C(=O)c1ccc2ccccc2c1-c1ccc(N(C)C)cc1
84 | 209 to 211 | Cc1nc2cc(Nc3nccc(-c4ccc(N5CCNCC5)nc4)n3)ccc2s1
85 | 214 to 216 | CC1(C)CCC(C)(C)c2cc(S(=O)c3ccc(C(=O)O)cc3)ccc21 (configuration not stated)
86 | 88 to 93 | O=c1oc2c(c(O)c1C(c1ccccc1)C1CC1)CCCCCC2CC1CCCCO1 (configuration not stated)
87 | 103 to 105 | CC(=O)NC(=O)CSC(=O)c1ccco1
88 | 223 to 226 | CCC(=O)OCCOCn1cnc2c(=O)[nH]c(N)nc21
89 | 199 to 200 | CC(=O)NC[C@H]1CN(c2ccc(-c3ncno3)c(F)c2)C(=O)O1
90 | 140 to 142 | COC(=O)COc1cc(C(=O)N2CCOCC2)ccc1[N+](=O)[O-]
91 | 81 to 82 | CCOCN1C(C)=C(C(=O)OC)[C@H](c2cccc([N+](=O)[O-])c2)C(C(=O)OCOC(=O)C(C)(C)C)=C1C
92 | 168 | NC(=O)C1CN(Cc2ccccc2)CCN1 (configuration not stated)
93 | 70 | CC(OCc1cc2cc(Cl)ccc2n1S(=O)(=O)c1ccc2c(c1)OCCO2)C(=O)O (configuration not stated)
94 | 165 to 169 | Cc1cc(=O)c2ccc(N)cc2s1
95 | 86 | CCCC(c1ccc(C(=O)O)cc1)N(CCC)c1nc(-c2ccc(Cl)cc2Cl)c(C)s1 (configuration not stated)
96 | 193 | Cn1c(=O)c(C(=O)NC2CCCCC2)c(O)c2cc(F)ccc21
97 | 119 to 120 | CC(=O)c1ccc(OCCOc2ccc3ccccc3c2)cc1Cl
